Measurements from US20070043049A1, “Substituted heterocyclic diarylamine analogues” (Neurogen Corporation, priority 2003, published 2007).

target: T1, human capsaicin receptor (Homo sapiens, UniProt Q8NER1); test: Calcium mobilization assay, determination of antagonist activity (Example 6); format: cell-based; settings: 50% decrease in fluorescence response of cells expressing human capsaicin receptor exposed to capsaicin
T1 construct: pBK-CMV expression construct encoding the full length human capsaicin receptor; expressed in transfected cells
T1 sequence (Q8NER1 whole entry): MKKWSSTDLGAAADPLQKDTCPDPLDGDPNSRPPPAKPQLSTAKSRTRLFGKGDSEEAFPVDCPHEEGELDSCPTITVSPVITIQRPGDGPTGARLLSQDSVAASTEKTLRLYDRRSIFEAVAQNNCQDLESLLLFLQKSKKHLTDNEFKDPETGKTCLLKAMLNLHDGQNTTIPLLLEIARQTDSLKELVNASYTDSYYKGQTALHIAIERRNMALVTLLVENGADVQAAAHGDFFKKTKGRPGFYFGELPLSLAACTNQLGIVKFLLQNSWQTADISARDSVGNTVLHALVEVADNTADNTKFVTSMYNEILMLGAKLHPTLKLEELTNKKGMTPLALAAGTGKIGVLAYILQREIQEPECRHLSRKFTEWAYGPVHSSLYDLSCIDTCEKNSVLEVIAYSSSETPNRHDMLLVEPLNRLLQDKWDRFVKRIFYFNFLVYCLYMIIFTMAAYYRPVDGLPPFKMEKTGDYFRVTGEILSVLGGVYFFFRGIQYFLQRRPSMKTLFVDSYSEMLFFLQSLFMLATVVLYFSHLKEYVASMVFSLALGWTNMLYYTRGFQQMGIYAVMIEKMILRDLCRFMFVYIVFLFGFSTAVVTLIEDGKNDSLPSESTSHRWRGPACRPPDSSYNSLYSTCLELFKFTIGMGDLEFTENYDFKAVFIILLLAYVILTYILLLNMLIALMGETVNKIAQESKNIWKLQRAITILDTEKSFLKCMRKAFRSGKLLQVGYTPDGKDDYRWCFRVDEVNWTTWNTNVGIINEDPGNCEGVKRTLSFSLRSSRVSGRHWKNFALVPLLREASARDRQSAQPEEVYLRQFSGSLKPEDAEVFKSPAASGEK
Outline: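 HEK293 cells stably expressing full-length human capsaicin receptor, Fluo-3 AM loaded, preincubated with compound 0.5–6 h at room temperature in KRH buffer pH 7.4. Challenged with capsaicin at its EC50; FLIPR fluorescence read. IC50 is concentration halving the capsaicin-induced calcium response.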

Structure (SMILES) | IC50 [nM]
Clc1cccnc1N1CCN(c2nc(Nc3ccccc3)nc(N3CCOCC3)n2)CC1 [Compound 97, {4-[4-(3-Chloro-pyridin-2-yl)-piperazin-1-yl]-6-morpholin-4-yl-[1,3,5]triazin-2-yl}-phenyl-amine] | ≤ 1000
CN(C)c1nc(Nc2ccc(C(F)(F)F)cc2)nc(N2CCN(c3ccccn3)CC2)n1 [Compound 43, N,N-Dimethyl-6-(4-pyridin-2-yl-piperazin-1-yl)-N′-(4-trifluoromethyl-phenyl)-[1,3,5]triazine-2,4-diamine] | ≤ 1000
Fc1ccc(Nc2cc(N3CCN(c4ncccc4C(F)(F)F)CC3)nc(CN3CCOCC3)n2)cc1F [Compound 112, (3,4-Difluoro-phenyl)-{2-morpholin-4-ylmethyl-6-[4-(3-trifluoromethyl-pyridin-2-yl)-piperazin-1-yl]-pyrimidin-4-yl}-amine] | ≤ 1000
FC(F)(F)c1cccnc1N1CCN(c2nc(Nc3ccccc3)cc(N3CCCCC3)n2)CC1 [Compound 57, Phenyl-{6-piperidin-1-yl-2-[4-(3-trifluoromethyl-pyridin-2-yl)-piperazin-1-yl]-pyrimidin-4-yl}-amine] | ≤ 1000
C[C@@H]1CN(c2ncccc2C(F)(F)F)CCN1c1nc(Nc2ccc(C(C)(C)C)cc2)nc(OCc2ccccc2C(F)(F)F)n1 [Compound 6, (4-tert-Butyl-phenyl)-[4-[2-methyl-4-(3-trifluoromethyl-pyridin-2-yl)-piperazin-1-yl]-6-(2-trifluoromethyl-benzyloxy)-[1,3,5]triazin-2-yl]-amine (R)] | ≤ 1000
C[C@@H]1CN(c2ncccc2Cl)CCN1c1nc(NCc2ccccc2)nc(Nc2ccc(C(F)(F)F)cc2)n1 [Compound 38, N-Benzyl-6-[4-(3-chloro-pyridin-2-yl)-2-methyl-piperazin-1-yl]-N′-(4-trifluoromethyl-phenyl)-[1,3,5]triazine-2,4-diamine (R)] | ≤ 1000
CC1CCCN1c1nc(Nc2cccc(F)c2)nc(N2CCN(c3ncccc3Cl)CC2)n1 (stereo not shown) [Compound 77, [4-[4-(3-Chloro-pyridin-2-yl)-piperazin-1-yl]-6-(2-methyl-pyrrolidin-1-yl)-[1,3,5]triazin-2-yl]-(3-fluoro-phenyl)-amine] | ≤ 1000

Further lines, results first:

IC50 [nM] | Structure (SMILES)
≤ 1000 | CCN(CC)c1nc(Nc2ccc(F)c(F)c2)nc(N2CCN(c3ncccc3Cl)CC2)n1 [Compound 91, 6-[4-(3-Chloro-pyridin-2-yl)-piperazin-1-yl]-N-(3,4-difluoro-phenyl)-N′,N′-diethyl-[1,3,5]triazine-2,4-diamine]
≤ 1000 | CN(C)c1nc(Nc2ccc(C(F)(F)F)cc2)nc(N2CCN(c3ccccc3)CC2)n1 [Compound 42, N,N-Dimethyl-6-(4-phenyl-piperazin-1-yl)-N′-(4-trifluoromethyl-phenyl)-[1,3,5]triazine-2,4-diamine]
≤ 1000 | CC(C)CCNc1nc(Nc2ccc(C(F)(F)F)cc2)nc(N2CCN(c3ncccc3C(F)(F)F)CC2)n1 [Compound 21, N-(3-Methyl-butyl)-N′-(4-trifluoromethyl-phenyl)-6-[4-(3-trifluoromethyl-pyridin-2-yl)-piperazin-1-yl]-[1,3,5]triazine-2,4-diamine]
≤ 1000 | CN(C)c1nc(Nc2cccc(F)c2)nc(N2CCN(c3ncccc3Cl)CC2)n1 [Compound 76, 6-[4-(3-Chloro-pyridin-2-yl)-piperazin-1-yl]-N-(3-fluoro-phenyl)-N′,N′-dimethyl-[1,3,5]triazine-2,4-diamine]
≤ 1000 | Fc1ccc(Nc2nc(N3CCOCC3)nc(N3CCN(c4ncccc4C(F)(F)F)CC3)n2)cc1 [Compound 59, (4-Fluoro-phenyl)-{4-morpholin-4-yl-6-[4-(3-trifluoromethyl-pyridin-2-yl)-piperazin-1-yl]-[1,3,5]triazin-2-yl}-amine]
≤ 1000 | CCN(CC)c1nc(Nc2cc(OC)ccc2OC)nc(N2CCN(c3ccccn3)CC2)n1 [Compound 108, N-(2,5-Dimethoxy-phenyl)-N′,N′-diethyl-6-(4-pyridin-2-yl-piperazin-1-yl)-[1,3,5]triazine-2,4-diamine]
